# Experimental data reported in patent US6511997B1, “Aminopyrazole derivatives” (Teikoku Hormone Mfg. Co., Ltd., priority 1998, dated 2003).
row,melting point [°C],SMILES
1,242.4 to 244.1,"O=C(Cc1ccccc1[N+](=O)[O-])Nc1n[nH]c(-c2ccc(F)cc2)c1-c1ccncc1 [Example 92, 5-(4-fluorophenyl)-3-(2-nitrophenylacetylamino)-4-(4-pyridyl)pyrazole]"
2,196.3 to 197.1,"Nc1ccccc1CC(=O)Nc1n[nH]c(-c2ccc(F)cc2)c1-c1ccncc1 [Example 93, 5-(4-fluorophenyl)-3-(2-aminophenylacetylamino)-4-(4-pyridyl)pyrazole]"
3,110.6 to 119,"Cn1nc(-c2ccc(F)cc2)c(-c2ccncc2)c1NC(=O)Cc1cccc(N)c1 [Example 94, 5-(3-Aminophenylacetylamino)-3-(4-fluorophenyl)-1-methyl-4-(4-pyridyl)pyrazole]"
4,127.1 to 128.6,"Cn1nc(-c2ccc(F)cc2)c(-c2ccncc2)c1NC(=O)Cc1ccc(O)cc1 [Example 95, 5-(4-hydroxyphenylacetylamino)-3-(4-fluorophenyl)-1-methyl-4-(4-pyridyl)pyrazole]"
5,219 to 221.2,"CCn1nc(-c2ccc(F)cc2)c(-c2ccncc2)c1NC(=O)Cc1ccccc1 [Example 97, 1-Ethyl-3-(4-fluorophenyl)-5-phenylacetylamino-4-(4-pyridyl)pyrazole]"
6,226 to 232.3,"CCn1nc(-c2ccc(F)cc2)c(-c2ccncc2)c1NC(=O)Cc1ccccc1Cl [Example 98, 5-(2-Chlorophenylacetylamino)-1-ethyl-3-(4-fluorophenyl)-4-(4-pyridyl)pyrazole]"
7,176.5 to 178.5,"CCCn1nc(-c2ccc(F)cc2)c(-c2ccncc2)c1NC(=O)Cc1ccccc1 [Example 99, 3-(4-Fluorophenyl)-5-phenylacetylamino-1-propyl-4-(4-pyridyl)pyrazole]"
8,147.5 to 149.5,"CCn1nc(-c2ccc(F)cc2)c(-c2ccncc2)c1NC(=O)Cc1ccccn1 [Example 100, 1-Ethyl-3-(4-fluorophenyl)-4-(4-pyridyl)-5-(2-pyridylacetylamino)pyrazole]"
9,142.9 to 144.2,"COc1ccccc1CC(=O)Nc1c(-c2ccncc2)c(-c2ccc(F)cc2)nn1CCOCc1ccccc1 [Example 103, 1-(2-Benzyloxyethyl)-3-(4-fluorophenyl)-5-(2-methoxyphenylacetylamino)-4-(4-pyridyl)pyrazole]"
10,200.6 to 204.2,"COc1ccccc1CC(=O)Nc1c(-c2ccncc2)c(-c2ccc(F)cc2)nn1CCO [Example 104, 3-(4-fluorophenyl)-1-(2-hydroxyethyl)-5-(2-methoxyphenylacetylamino)-4-(4-pyridyl)pyrazole]"
11,180.3 to 183.6,"O=C(Cc1ccccc1)Nc1c(-c2ccncc2)c(-c2ccc(F)cc2)nn1CCO [Example 105, 3-(4-Fluorophenyl)-1-(2-hydroxyethyl)-5-phenylacetylamino-4-(4-pyridyl)pyrazole]"
12,265.2 to 268,"O=C(Cc1ccccc1Cl)Nc1c(-c2ccncc2)c(-c2ccc(F)cc2)nn1-c1ccccc1 [Example 107, 5-(2-chlorophenylacetylamino)-3-(4-fluorophenyl)-1-phenyl-4-(4-pyridyl)pyrazole]"
13,127.5 to 132.1,"Cn1nc(-c2ccc3c(c2)OCO3)c(-c2ccncc2)c1NC(=O)Cc1ccccc1 [Example 109, 1-methyl-3-(3,4-methylenedioxyphenyl)-5-phenylacetylamino-4-(4-pyridyl)pyrazole]"
14,206.9 to 208.7,"Cn1nc(-c2ccc3c(c2)OCO3)c(-c2ccncc2)c1NC(=O)Cc1ccc(F)c(Cl)c1 [Example 110, 5-(3-Chloro-4-fluorophenylacetylamino)-1-methyl-3-(3,4-methylenedioxyphenyl)-4-(4-pyridyl)pyrazole]"
15,198.4 to 199.1,"Cn1nc(-c2ccc(Cl)c(Cl)c2)c(-c2ccncc2)c1NC(=O)Cc1ccccc1 [Example 111, 3-(3,4-Dichlorophenyl)-1-methyl-5-phenylacetylamino-4-(4-pyridyl)pyrazole]"
16,162.8 to 163.9,"Cn1nc(-c2ccc(F)c(Cl)c2)c(-c2ccncc2)c1NC(=O)Cc1ccc(F)cc1Cl [Example 112, 3-(3-Chloro-4-fluorophenyl)-5-(2-chloro-4-fluorophenylacetylamino)-1-methyl-4-(4-pyridyl)pyrazole]"
17,194.2 to 194.7,"Cn1nc(-c2ccc(F)c(Cl)c2)c(-c2ccncc2)c1NC(=O)Cc1ccccc1 [Example 113, 3-(3-Chloro-4-fluorophenyl)-1-methyl-5-phenylacetylamino-4-(4-pyridyl)pyrazole]"
18,194.7 to 196,"Cn1nc(-c2ccc(F)c(Cl)c2)c(-c2ccncc2)c1NC(=O)Cc1c(F)c(F)c(F)c(F)c1F [Example 114, 3-(3-Chloro-4-fluorophenyl)-1-methyl-5-(2,3,4,5,6-pentafluorophenylacetylamino)4-(4-pyridyl)pyrazole]"

row,melting point [°C],SMILES
1,279.3 to 280.1,"Cn1nc(-c2ccc(Cl)c(Cl)c2)c(-c2ccncc2)c1NC(=O)Cc1ccc(F)cc1Cl [Example 115, 5-(2-Chloro-4-fluorophenylacetylamino)-3-(3,4-dichlorophenyl)-1-methyl-4-(4-pyridyl)pyrazole]"
2,157.6 to 160.1,"Cn1nc(NC(=O)Cc2ccccc2)c(-c2ccncc2)c1-c1ccc(F)cc1 [Example 116, 5-(4-fluorophenyl)-1-methyl-3-phenylacetylamino-4-(4-pyridyl)pyrazole]"
3,164.9 to 166.5,"Cn1nc(-c2ccc(F)cc2)c(-c2ccncc2)c1NC(=O)Cc1ccccc1 [Example 117, 3-(4-Fluorophenyl)-1-methyl-5-phenylacetylamino-4-(4-pyridyl)pyrazole]"
4,193.8 to 195.3,"Cn1nc(NC(=O)Cc2ccccc2Cl)c(-c2ccncc2)c1-c1ccc(F)cc1 [Example 118, 3-(2-Chlorophenylacetylamino)-5-(4-fluorophenyl)-1-methyl-4-(4-pyridyl)pyrazole]"
5,169.8 to 171.1,"CN(C(=O)Cc1ccccc1)c1nn(C)c(-c2ccc(F)cc2)c1-c1ccncc1 [Example 119, 5-(4-fluorophenyl)-1-methyl-3-(N-methyl-N-phenylacetylamino)-4-(4-pyridyl)pyrazole]"
6,168.5 to 171.2,"CN(C(=O)Cc1ccccc1)c1c(-c2ccncc2)c(-c2ccc(F)cc2)nn1C [Example 120, 3-(4-Fluorophenyl)-1-methyl-5-(N-methyl-N-phenylacetylamino)-4-(4-pyridyl)pyrazole]"
7,168.6 to 171.2,"CN(C(=O)Cc1ccccc1Cl)c1c(-c2ccncc2)c(-c2ccc(F)cc2)nn1C [Example 121, 5-[N-(2-chlorophenylacetyl)-N-methylamino]-3-(4-fluorophenyl)-1-methyl-4-(4-pyridyl)pyrazole]"
8,205.7 to 207.8,"CN(C(=O)Cc1c(Cl)cccc1Cl)c1c(-c2ccncc2)c(-c2ccc(F)cc2)nn1C [Example 122, 5-[N-(2,6-dichlorophenylacetyl)-N-methylamino]-3-(4-fluorophenyl)-1-methyl-4-(4-pyridyl)pyrazole]"
9,124.1 to 125.6,"CN(C(=O)Cc1ccc(F)cc1)c1c(-c2ccncc2)c(-c2ccc(F)cc2)nn1C [Example 125, 3-(4-Fluorophenyl)-5-[N-(4-fluorophenylacetyl)-N-methylamino]-1-methyl-4-(4-pyridyl)pyrazole]"
10,175.8 to 178.1,"COc1ccc(CC(=O)N(C)c2c(-c3ccncc3)c(-c3ccc(F)cc3)nn2C)cc1 [Example 126, 3-(4-Fluorophenyl)-1-methyl-5-[N-methyl-N-(4-methoxyphenylacetyl)amino]-4-(4-pyridyl)pyrazole]"
11,124.5 to 127.3,"CCCn1nc(-c2ccc(F)cc2)c(-c2ccncc2)c1N(C)C(=O)Cc1ccccc1 [Example 128, 3-(4-Fluorophenyl)-5-(N-methyl-N-phenylacetylamino)-1-propyl-4-(4-pyridyl)pyrazole]"
12,144 to 145.2,"CN(C(=O)Cc1ccccn1)c1c(-c2ccncc2)c(-c2ccc(F)cc2)nn1C [Example 129, 3-(4-Fluorophenyl)-1-methyl-5-[N-methyl-N-(2-pyridylacetyl)amino]-4-(4-pyridyl)pyrazole]"
13,203.8 to 205.6,"CN(C(=O)Cc1ccccc1Cl)c1c(-c2ccncc2)c(-c2ccc(F)cc2)nn1-c1ccccc1 [Example 130, 3-(4-Fluorophenyl)-5-[N-methyl-N-(2-chlorophenylacetyl)amino]-1-phenyl-4-(4-pyridyl)pyrazole]"
14,143.6 to 145.3,"COc1ccccc1CC(=O)N(C)c1c(-c2ccncc2)c(-c2ccc(F)cc2)nn1C [Example 131, 3-(4-Fluorophenyl)-5-[N-methyl-N-(2-methoxyphenylacetyl)amino]-1-methyl-4-(4-pyridyl)pyrazole]"
15,287.5 to 290.2,"Cn1nc(-c2ccc(F)cc2)c(-c2ccncc2)c1NC(=O)Nc1ccccc1 [Example 136, 3-(4-fluorophenyl)-1-methyl-5-(phenylaminocarbonylamino)-4-(4-pyridyl)pyrazole]"
16,181 to 183.3,"O=S(=O)(Nc1n[nH]c(-c2ccc(F)cc2)c1-c1ccncc1)c1ccccc1 [Example 139, 5-(4-fluorophenyl)-3-phenylsulfonylamino-4-(4-pyridyl)pyrazole]"
17,221.2 to 221.5,"Cc1ccc(S(=O)(=O)Nc2n[nH]c(-c3ccc(F)cc3)c2-c2ccncc2)cc1 [Example 140, 5-(4-Fluorophenyl)-4-(4-pyridyl)-3-(p-toluenesulfonylamino)pyrazole]"

row,SMILES,melting point [°C]
1,"CN(C(=O)OC(C)(C)C)[C@@H](Cc1ccccc1)C(=O)Nc1n[nH]c(-c2ccc(F)cc2)c1-c1ccncc1 [Example 89, 3-(N′-Carbo-t-butoxy-N′-methyl-L-Phenylalanylamino)-5-(4-fluorophenyl)-4-(4-pyridyl)pyrazole]",232.4 to 233.1
